In ChEMBL document CHEMBL4428103, “Potential therapeutic application of small molecule with sulfonamide for chondrogenic differentiation and articular cartilage repair” (Bioorg Med Chem Lett, 2016) one finds Activity and fold change (FC) data, which are given here for 28 compounds.

The species named for assay [1] is Homo sapiens. Nature of the assay: Chondrogenic activity in human ASC assessed as increase in aggrecan expression at 10 uM incubated for 11 days by sandwich ELISA relative to control. The format is functional. (In general: In an ELISA, binding on a coated surface is turned into a signal by an enzyme label.)
For assay [2], the species on record is Homo sapiens. Nature of the assay: Chondrogenic activity in human ASC assessed as increase in aggrecan expression at 1 uM incubated for 11 days by sandwich ELISA relative to control. It is filed as functional.
Assay [3] is filed under the species Homo sapiens. Nature of the assay: Induction of differentiation in human ASC after 11 days by alcian blue staining based analysis relative to control. It is filed as functional.
For assay [4], the species on record is Rattus norvegicus. The experiment in a line: Induction of cartilage repair in collagenase2-induced osteoarthritis rat model assessed as recovery of cartilage thickness at 10 uM on day 7 and 21 by safranin O/fast green staining-based optical microscopic analysis. It is filed as functional, organism-based.
Assay [5] is filed under the species Rattus norvegicus. The experiment in a line: Induction of cartilage repair in collagenase2-induced osteoarthritis rat model assessed as increase in proteoglycan content injected with 10 uM compound-treated human ASC + on day 7 and 21 by safranin O/fast green staining-based optical microscopic analysis. The format is functional, organism-based.
The species entered for assay [6] is Rattus norvegicus. The experiment in a line: Induction of cartilage repair in collagenase2-induced osteoarthritis rat model assessed as recovery of cartilage thickness injected with 10 uM compound-treated human ASC on day 7 and 21 by safranin O/fast green staining-based optical microscopic analysis. The format is functional, organism-based.
The species entered for assay [7] is Homo sapiens. The experiment in a line: Upregulation of ERK phosphorylation in human ASC at 0.1 to 1 uM by Western blot analysis. As to conditions: TDE = time-dependent effect. For orientation: Immunoblotting shows a protein as a band on a membrane.
The species entered for assay [8] is Homo sapiens. Nature of the assay: Chondrogenic activity in human ASC assessed as increase in aggrecan expression at 10 uM incubated for 11 days in presence of MEK inhibitor U0126 by sandwich ELISA relative to control. It is filed as functional.
The species entered for assay [9] is Homo sapiens. Nature of the assay: Chondrogenic activity in human ASC assessed as increase in aggrecan expression incubated for 11 days by sandwich ELISA relative to control. The format is functional.
The species named for assay [10] is Rattus norvegicus. The experiment in a line: Upregulation of aggrecan expression in collagenase2-induced osteoarthritis rat model injected with 10 uM compound-treated human ASC on day 7 and 21 by immunohistochemistry. It is filed as functional, organism-based.
For assay [11], the species on record is Rattus norvegicus. The experiment in a line: Upregulation of aggrecan expression in collagenase2-induced osteoarthritis rat model injected with 10 uM compound on day 7 and 21 by immunohistochemistry. The format is functional, organism-based.

Activity calls are given as the source filed them. No cut-off for these calls is given here.

With `O=S(=O)(NC1CCC(CCO)CC1)c1ccc(-c2ccccc2)cc1` (configuration not stated), the outcome in [1] and in [2] was inactive.
As to `O=S(=O)(Nc1ccc(O)cc1F)c1ccc(-c2ccccc2)cc1`, the outcome in [2] was inactive.
Regarding `CCN(c1cc(O)ccc1C)S(=O)(=O)c1ccc2ccccc2c1`, the outcome in [1] and in assay [2] was inactive.
With `O=S(=O)(NCCc1ccc(O)c(O)c1)c1ccc(-c2ccccc2)cc1`, the outcome in assay [1] and in assay [2] was inactive.
`Cc1ccc(S(=O)(=O)Nc2ccc(O)c3ccccc23)cc1`: the fold change (FC) in assay [1] and in [2] was 2 throughout.
Consider `O=S(=O)(Nc1ccc(O)c(F)c1)c1ccc2ccccc2c1`, for which the outcome in assay [2] was inactive.
In the case of `CC(C)(C)c1ccc(S(=O)(=O)Nc2ccc(O)cc2Cl)cc1`, the outcome in assay [2] was inactive.
Turning to `O=S(=O)(Nc1cccc2c(O)cccc12)c1ccc(-c2ccccc2)cc1`, the fold change (FC) in assay [1] and in assay [2] was 2 throughout.
Turning to `O=[N+]([O-])c1cc(NS(=O)(=O)c2ccc3ccccc3c2)ccc1O`, in [1], the result was Active. For the same compound, the outcome in assay [2] was inactive.
Turning to `O=S(=O)(Nc1ccc(O)cc1)c1cccc2cccnc12`, the fold change (FC) in assay [3] stood at 3; in [1], 2; in [2], 2. For the same compound, the result in assay [4], in assay [5], in [6], in [10] and in assay [11] was Active. For the same compound, the results for the Activity result in [7] and in assay [9] were “Tde” and “Dose-dependent effect”, respectively. Further, the outcome in assay [8] was inactive.
Turning to `CCN(c1cc(O)ccc1C)S(=O)(=O)c1ccc(C(C)(C)C)cc1`, the result in assay [1] and in [2] was inactive.
As for `CC(C)(C)c1ccc(S(=O)(=O)Nc2ccc(O)cc2F)cc1`, the outcome in assay [2] was inactive.
As to `CC(C)(C)c1ccc(S(=O)(=O)Nc2cccc(O)c2)cc1`, the result in assay [2] was inactive.
`O=S(=O)(Nc1ccc(O)cc1F)c1ccc2ccccc2c1`: the result in assay [1] was Active. For the same compound, the outcome in assay [2] was inactive.
Take `O=S(=O)(NC1CCC(CCO)CC1)c1ccc2ccccc2c1` (configuration not stated): the result in [1] and in [2] was inactive.
Turning to `Cc1ccc(S(=O)(=O)Nc2cccc3ccc(O)cc23)cc1`, the result in [1] was Active. For the same compound, the outcome in assay [2] was inactive.
For the compound `O=S(=O)(Nc1cccc2ccc(O)cc12)c1cccc2cccnc12`, the fold change (FC) in assay [1] and in assay [2] was 2 each time.
Turning to `O=S(=O)(Nc1ccc(O)cc1)c1ccc2ccccc2c1`, the outcome in assay [1] and in assay [2] was inactive.
Take `CC(C)(C)c1ccc(S(=O)(=O)NC2CCC(CCO)CC2)cc1` (configuration not stated): the outcome in assay [1] and in assay [2] was inactive.
Turning to `O=S(=O)(Nc1ccc(O)c(F)c1)c1ccc(-c2ccccc2)cc1`, in assay [2], the result was inactive.
Turning to `O=S(=O)(Nc1ccc(O)cc1Cl)c1ccc2ccccc2c1`, the result in [1] was Active. Besides, the outcome in assay [2] was inactive.
On to `CC(C)(C)c1ccc(S(=O)(=O)NCCc2ccc(O)c(O)c2)cc1`, for which the outcome in assay [1] and in assay [2] was inactive.
On to `O=S(=O)(NCCc1ccc(O)c(O)c1)c1ccc2ccccc2c1`, for which the result in assay [1] and in assay [2] was inactive.
`CC(C)(C)c1ccc(S(=O)(=O)Nc2ccc(O)c(C(=O)O)c2)cc1`: the fold change (FC) in assay [1] and in assay [2] was 2 each time.
Consider `O=C(O)c1cc(NS(=O)(=O)c2cccc3cccnc23)ccc1O`, for which the fold change (FC) in assay [1] and in assay [2] was 2 each time.
Consider `O=S(=O)(Nc1ccc(O)cc1Cl)c1ccc(-c2ccccc2)cc1`, for which the outcome in assay [2] was inactive.
Regarding `Cc1ccc(S(=O)(=O)Nc2cccc3c(O)cccc23)cc1`, the result in assay [1] was Active. In addition, the outcome in assay [2] was inactive.
`CC(C)(C)c1ccc(S(=O)(=O)Nc2ccc(O)c(F)c2)cc1`: in [2], the outcome was inactive.
